Assay results from patent US7863264B2, “Stabilised compositions having antibacterial activity” (Coloplast A/S, priority 2000, dated 2011).

Experiments:
[1] = Solubility for 1:1 complexes (silver by atomic absorption spectroscopy); details: Complex Ag:ligand 1:1; purified water
Protocol: The tube is placed on a vortex mixer for 1 h (1500 min^−1) and the tube is centrifuged (3000 min^−1/30 min). The water is decanted off and discarded, and another 10 ml purified water is added. This is repeated 2 times, and after the third centrifugation, the liquid decanted off is filtered (0.22 mm PVDF), preserved with nitric acid and the silver concentration is determined by atomic absorption spectroscopy after appropriate dilution.
Determination of solubility of complexes of silver with various ligands.

[2] = UV light stability test (visual and CIE-Lab colour measurement); type: physicochemical; design: key to Dist. (distance in CIE-Lab colour space): Dist = √(ΔL²+Δa²+Δb²) in CIE-Lab, before vs after UV; details: for Visual evaluation of complexes after UV-irradiation: UV lamp 30 minutes, cut off approx. 280 nm; for L2 (CIE-Lab colour coordinate L) / b2 (CIE-Lab colour coordinate b) / a2 (CIE-Lab colour coordinate a): after 30 minutes UV irradiation; for L1 (CIE-Lab colour coordinate L) / b1 (CIE-Lab colour coordinate b) / a1 (CIE-Lab colour coordinate a): before irradiation; for Dist. (distance in CIE-Lab colour space): before vs after 30 minutes UV irradiation
Protocol: 1.5 g of complex was placed in a 50 mm Pyrex petri dish. This was covered with a 56 mm Pyrex lid with a UV-cut off at approx. 280 nm and placed 100 mm under a UV lamp (UVASPOT) 400/T 450W metal halide high pressure lamp, Dr. K. Hönle GmbH) for 30 minutes.
The colour was measured, with a Minolta CR300 colour measurement apparatus (CIE-Lab colour coordinates) before (1) and after (2) irradiation. Measurements were made approx. 1 mm above the complex. The distance in colour-space was calculated using the formula Dist=√{square root over (ΔL^2+Δa^2+Δb^2)}, where “L”, “a”, and “b” are the CIE-Lab Colour Coordinates Solubility for 1:1 Complexes:
Compounds according to the production in example 4 were assessed for stability against UV-light (wave length >280 nm). Milled powders were spread in a 1 mm thick layer in ordinary petri dishes and illuminated by the UV-light for 30 minutes.

CC(=O)N1C(=O)[N-]C(=O)C1(C)C.[Ag+] [Ag/1-acetyl-5,5-dimethyl-hydantoin, Silver 1-acetyl-5,5-dimethyl-hydantoinate]
Solubility [1]: 1.100 mg Ag/l

CC1(C)NC(=O)[N-]C1=O.[Ag+] [Ag/5,5-dimethyl-hydantoin, Silver 5,5-dimethyl-hydantoinate]
Visual evaluation of complexes after UV-irradiation [2]: White/no trace of discolouration | L2 (CIE-Lab colour coordinate L) [2]: 96.84 | b2 (CIE-Lab colour coordinate b) [2]: 0.39 | L1 (CIE-Lab colour coordinate L) [2]: 94.96 | b1 (CIE-Lab colour coordinate b) [2]: 0.12 | Dist. (distance in CIE-Lab colour space) [2]: 1.90

O=C1CNC(=O)[N-]1.[Ag+] [Ag/hydantoin, Silver hydantoinate, reference compound]
Visual evaluation of complexes after UV-irradiation [2]: Dark brown/heavily discoloured | L2 (CIE-Lab colour coordinate L) [2]: 26.03 | a2 (CIE-Lab colour coordinate a) [2]: 10.75 | b2 (CIE-Lab colour coordinate b) [2]: 12.84 | L1 (CIE-Lab colour coordinate L) [2]: 96.67 | a1 (CIE-Lab colour coordinate a) [2]: 0.06 | b1 (CIE-Lab colour coordinate b) [2]: 2.62 | Dist. (distance in CIE-Lab colour space) [2]: 72.17

Silver 5,5-diethyl-hydantoinate [Ag/5,5-diethyl-hydantoin]
Visual evaluation of complexes after UV-irradiation [2]: White/no trace of discolouration | L2 (CIE-Lab colour coordinate L) [2]: 94.05 | b2 (CIE-Lab colour coordinate b) [2]: 2.03 | L1 (CIE-Lab colour coordinate L) [2]: 96.76 | b1 (CIE-Lab colour coordinate b) [2]: 0.67 | Dist. (distance in CIE-Lab colour space) [2]: 3.05

Silver 5-methyl-5-isobutyl-hydantoinate [Ag/5-isobutyl-5-methyl-hydantoin]
Visual evaluation of complexes after UV-irradiation [2]: White/no trace of discolouration | L2 (CIE-Lab colour coordinate L) [2]: 92.65 | b2 (CIE-Lab colour coordinate b) [2]: 1.74 | L1 (CIE-Lab colour coordinate L) [2]: 92.4 | a1 (CIE-Lab colour coordinate a) [2]: 0.03 | b1 (CIE-Lab colour coordinate b) [2]: 0.42 | Dist. (distance in CIE-Lab colour space) [2]: 1.36

Silver allantoinate [Ag-allantoin 1:1, reference compound]
Visual evaluation of complexes after UV-irradiation [2]: Dark brown/heavily discoloured | L2 (CIE-Lab colour coordinate L) [2]: 32.7 | a2 (CIE-Lab colour coordinate a) [2]: 14.71 | b2 (CIE-Lab colour coordinate b) [2]: 28.41 | L1 (CIE-Lab colour coordinate L) [2]: 92.98 | b1 (CIE-Lab colour coordinate b) [2]: 2.3 | Dist. (distance in CIE-Lab colour space) [2]: 67.44 | discolouration of the product ([2]; complex made according to U.S. Pat. No. 2,336,131, UV test not meaningful): discoloured extremely easily
